Results: ChEMBL document CHEMBL3400050, “The synthesis and evaluation of sesamol and benzodioxane derivatives as inhibitors of monoamine oxidase” (Bioorg Med Chem Lett, 2015)

How the values were obtained:
[1] = target: T1, Amine oxidase [flavin-containing] A (Homo sapiens, UniProt P21397); assay: Inhibition of human recombinant MAOA at 100 uM using kynuramine substrate assessed as reduction in MAO-generated 4-hydroxyquinoline level by fluorescence spectrophotometry
T1 sequence (P21397 whole entry): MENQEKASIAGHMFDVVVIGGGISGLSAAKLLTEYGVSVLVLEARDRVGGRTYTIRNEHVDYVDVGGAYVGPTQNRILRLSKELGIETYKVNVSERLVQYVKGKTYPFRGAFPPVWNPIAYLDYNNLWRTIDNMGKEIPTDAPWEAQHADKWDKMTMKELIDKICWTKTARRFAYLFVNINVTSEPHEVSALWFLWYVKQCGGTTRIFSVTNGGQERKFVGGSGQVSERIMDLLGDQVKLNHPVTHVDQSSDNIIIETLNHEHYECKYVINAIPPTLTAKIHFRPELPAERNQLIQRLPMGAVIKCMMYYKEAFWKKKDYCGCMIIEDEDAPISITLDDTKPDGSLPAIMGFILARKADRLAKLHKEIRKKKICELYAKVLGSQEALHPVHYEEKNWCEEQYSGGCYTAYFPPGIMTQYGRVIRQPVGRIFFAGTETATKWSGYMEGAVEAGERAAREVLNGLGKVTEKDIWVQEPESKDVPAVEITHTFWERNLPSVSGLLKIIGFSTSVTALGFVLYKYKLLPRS

[2] = target: T2, Amine oxidase [flavin-containing] B (Homo sapiens, UniProt P27338); assay: Inhibition of human recombinant MAOB using kynuramine substrate assessed as reduction in MAO-generated 4-hydroxyquinoline level by fluorescence spectrophotometry
T2 sequence (P27338 whole entry): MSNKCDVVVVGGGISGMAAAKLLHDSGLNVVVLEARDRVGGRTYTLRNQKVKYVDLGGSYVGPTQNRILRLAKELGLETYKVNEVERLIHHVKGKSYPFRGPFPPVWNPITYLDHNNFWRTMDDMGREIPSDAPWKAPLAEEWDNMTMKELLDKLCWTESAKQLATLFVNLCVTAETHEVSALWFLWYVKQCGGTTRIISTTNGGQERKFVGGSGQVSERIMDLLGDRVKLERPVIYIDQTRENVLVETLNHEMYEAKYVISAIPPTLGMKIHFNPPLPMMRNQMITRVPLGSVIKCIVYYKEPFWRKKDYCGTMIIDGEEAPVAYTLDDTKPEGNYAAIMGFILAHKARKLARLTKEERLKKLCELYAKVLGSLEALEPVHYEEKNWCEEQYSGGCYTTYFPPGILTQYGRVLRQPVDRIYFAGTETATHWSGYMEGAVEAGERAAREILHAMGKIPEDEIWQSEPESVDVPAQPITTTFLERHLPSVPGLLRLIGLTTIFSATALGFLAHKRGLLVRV

Homo sapiens = species on record: Homo sapiens; assay: Selectivity index, ratio of IC50 for human recombinant MAOA to IC50 for human recombinant MAOB
[3] = target: T1, Amine oxidase [flavin-containing] A; assay: Inhibition of human recombinant MAOA using kynuramine substrate assessed as reduction in MAO-generated 4-hydroxyquinoline level by fluorescence spectrophotometry
[4] = target: T2, Amine oxidase [flavin-containing] B; assay: Reversible inhibition of human recombinant MAOB pre-incubated for 15 mins at 4 times IC50 level subsequently dialysed for 24 hrs followed by two fold dilution with kynuramine substrate assessed as enzyme catalytic activity by measuring 4-hydroxyquinoline level after 20 mins by fluorescence spectrophotometry; parameters: scale not given: the % may be the effect or the level left
[5] = target: T2, Amine oxidase [flavin-containing] B; assay: Reversible inhibition of human recombinant MAOB pre-incubated for 15 mins at 4 times IC50 level using kynuramine substrate assessed as enzyme catalytic activity by measuring 4-hydroxyquinoline level after 20 mins by fluorescence spectrophotometry; parameters: scale not given: the % may be the effect or the level left
[6] = target: T2, Amine oxidase [flavin-containing] B; assay: Competitive inhibition of human recombinant MAOB using kynuramine substrate assessed as reduction in MAO-generated 4-hydroxyquinoline level by Lineweaver-Burk plot

Row | SMILES | inhibition (INH) [1] | IC50 [2] [nM] | Ratio IC50 (Homo sapiens) | IC50 [3] [nM] | Activity [4] [%] | Activity [5] [%] | Ki [6] [nM]
1 | Brc1ccc(OCCOc2ccc3c(c2)OCO3)cc1 | Not Active | 7070 | > 14 |  |  |  | 
2 | Brc1cccc(COc2ccc3c(c2)OCCO3)c1 |  | 45 | 375 | 16900 | 87 | 21 | 41
3 | c1ccc(OCCOc2ccc3c(c2)OCCO3)cc1 |  | 109 | 637 | 69400 |  |  | 
4 | c1ccc(CCCOc2ccc3c(c2)OCO3)cc1 |  | 7290 | 11 | 77100 |  |  | 
5 | Brc1cccc(COc2ccc3c(c2)OCO3)c1 |  | 164 | 234 | 38400 |  |  | 
6 | Brc1ccc(OCCOc2ccc3c(c2)OCCO3)cc1 | Not Active | 941 | > 106 |  |  |  | 
7 | Clc1ccc(OCCOc2ccc3c(c2)OCO3)cc1 | Not Active | 1690 | > 59 |  |  |  | 
8 | c1ccc(CCOc2ccc3c(c2)OCCO3)cc1 |  | 48 | 579 | 27800 |  |  | 
9 | Clc1ccc(OCCOc2ccc3c(c2)OCCO3)cc1 | Not Active | 348 | > 287 |  |  |  | 
10 | Clc1cccc(COc2ccc3c(c2)OCO3)c1 |  | 248 | 209 | 51800 |  |  | 
11 | c1ccc(COc2ccc3c(c2)OCO3)cc1 | Not Active | 513 | > 195 |  |  |  | 
12 | c1ccc(CCCOc2ccc3c(c2)OCCO3)cc1 |  | 947 | 74 | 70400 |  |  | 
13 | c1ccc(COc2ccc3c(c2)OCCO3)cc1 |  | 168 | 215 | 36000 |  |  | 
14 | Clc1cccc(COc2ccc3c(c2)OCCO3)c1 |  | 57 | 232 | 13200 |  |  | 
15 | c1ccc(CCOc2ccc3c(c2)OCO3)cc1 |  | 3310 | 26 | 87700 |  |  | 
16 | c1ccc(OCCOc2ccc3c(c2)OCO3)cc1 | Not Active | 1140 | > 88 |  |  |  | 
